Assays:
[1] = tested on: STAT3 phosphorylation in T47D cells; test: Western blot of STAT3 phosphorylation, T47D; format: cell-based, human
Experimental: (§1) Therefore, in vitro experiments were performed to evaluate the effect of compound 3f on the phosphorylation of STAT3 in MCF-7 and T47D cells, utilizing our laboratory protocol. For this purpose, Western blot analysis was performed after the treatment of MCF-7 and T47D cells with compound 3f (0, 1, 3, 5 μM) and using p-STAT3 (Tyr705), p-STAT3 (Ser727), and STAT3 antibodies for blotting.
(§2) As previously reported, whole-cell lysates from cells treated with compound 3f were prepared to detect protein expression and phosphorylation using a lysis buffer [Tris (20 mM, pH 7.4), NaCl (250 mM), EDTA (2 mM, pH 8.0), Triton X-100 (0.1%), aprotinin (0.01 mg/mL), leupeptin (0.005 mg/mL), phenylmethane sulfonyl fluoride (0.4 mM), and NaVO4 (4 mM)]. To remove insoluble material, lysates were centrifuged at 13,000 rpm for 15 min.
(§3) Equal protein concentrations of cell lysate were resolved on sodium dodecyl sulfate-polyacrylamide gel electrophoresis, followed by transfer to nitrocellulose membranes as reported previously. Incubation was carried out overnight at 4 °C with antibodies after treatment with 5% skim milk. Afterward, the membranes were washed, probed with HRP-conjugated secondary antibodies for 2 h, and then visualized using chemiluminescence.
(§4) Figure 3 The lead compound 3f decreases the phosphorylation of STAT3 in MCF-7 and T47D cells in a concentration (A) and time-dependent (B) manner. MCF-7 and T47D cells were treated with the indicated concentration of 3f for 4 h. MCF-7 and T47D cells were treated with 5 µM of compound for the indicated time intervals. Thereafter, equal amounts of lysates were analyzed by Western blot analysis using antibodies against p-STAT3(Tyr705), p-STAT3(Ser727), or STAT3. The expression of each protein was quantified. β-ACTIN was used as input control.

TNBC cells = test: Effect against TNBC cells; format: cell-based; settings: in words
From the text: (§5) The goal herein was to assess the ability of imidazopyridine-tethered pyrazolines to inhibit cell viability in mammary carcinoma cells (using the Alamar Blue assay), since pyridine-fused pyrazoles were previously shown to inhibit cell viability in various breast cancer cells. […] The low chemical stability of thio-urea-based compounds may account for the inactivity of most thiourea-conjugated pyrazolines (excluding 4g) against TNBC cells.

BT-474 cells = test: Alamar Blue cell viability assay, BT-474; format: cell-based, human
From the text: as §5
(§6) MCF-7 cells were procured from Procell Life Science and Technology Co. LTD, Wuhan, China. Human breast cancer T47D, BT474, and SK-BR-3 cells were obtained from American Type Culture Collection (Washington, DC, NW, USA). Cells (2000) were cultured in MEM or Leibovitz’s L-15 medium enriched with 2% FBS and maintained in a humidified atmosphere of 5% CO2 at 37 °C. A stock solution of DMSO-dissolved compounds was prepared, and this solution was diluted with culture medium as required. MCF-7 Cells (4 × 10^3) were cultured in 96-well plates for 12 h and then treated for 72 h with compounds at concentrations of […]. Using Alamar Blue, the compounds were evaluated for their inhibitory effects

MCF-7 cells = test: Alamar Blue cell viability assay, MCF-7; format: cell-based, human; settings: MCF-7 cell viability
From the text: as §5, §6
Figure 2 Inhibitory effect of compounds 3f (A), 3e (B), 4g (C), and 3g (D) on the viability of MCF-7 cells. MCF-7 cells were treated with various concentrations of 2-pyrazolines for 72 h and the viability of cells was analyzed by Alamar Blue assays. The results are presented as mean ± S.E.M. of triplicate determinations.

MCF-10A cells = test: Alamar Blue cell viability assay, normal MCF-10A; format: cell-based; settings: Homo sapiens, normal MCF-10A cell viability
[2] = tested on: nuclear translocation of STAT3 in T47D cells; test: Immunocytochemistry of STAT3 nuclear translocation, T47D; format: cell-based, human; settings: 10 μM for 4 h (method) / 5 μM (Figure 10 legend)
Experimental: (§7) Finally, we attempted to understand the effect of compound 3f on the blocking of pSTAT3 into nuclear functionally since pSTAT3 dimers could enter the nucleus to give transcription. For this purpose, we conducted an immunocytochemistry assay using MCF-7 and T47D cells. […] We also analyzed the distribution of phospho-STAT3 in the nucleus and cytoplasm using fluorescent-labeled antibodies.
(§8) As described earlier, STAT3 phosphorylation in cells was quantified. After compound 3f treatment (10 μM for 4 h), cells were fixed for 20 min with paraformaldehyde (4%). Thereafter, cells were treated with 0.2% Triton X-100 in phosphate-buffered saline for permeabilization, followed by blocking with 5% bovine serum albumin for 1 h. Then, the preparation was incubated overnight at 4 °C with a rabbit polyclonal anti-human STAT3 antibody (dilution, 1:100). […] The slides were mounted and analyzed under an Olympus FluoView FV1000 confocal microscope (Tokyo, Japan).
(§9) Figure 10 The nuclear localization of STAT3 in MCF-7 (A) and T47D (B) cells was inhibited by compound 3f. MCF-7 and T47D cells were treated with the compound 3f (5 μM), and then analyzed for intracellular distribution by immunocytochemistry. […] The fluorescence intensity of p-STAT3 and STAT3 was performed. […]

[3] = tested on: nuclear translocation of STAT3 in MCF-7 cells; test: Immunocytochemistry of STAT3 nuclear translocation, MCF-7; format: cell-based, human; settings: MCF-7, immunocytochemistry, 10 μM for 4 h (method) / 5 μM (Figure 10 legend)
Experimental: as §7, §8, §9

[4] = tested on: STAT3 phosphorylation in MCF-7 cells; test: Western blot of STAT3 phosphorylation, MCF-7; format: cell-based, human
Experimental: as §1, §2, §3, §4

T47D cells = test: Alamar Blue cell viability assay, T47D; format: cell-based, human
From the text: as §5, §6

SK-BR-3 cells = test: Alamar Blue cell viability assay, SK-BR-3; format: cell-based, human; settings: Homo sapiens, SK-BR-3 cell viability
From the text: as §5, §6

breast cancer cells = tested on: breast cancer cells; set-up: method as in PMID 33126089; settings: read-out: IC50 anti-proliferation against breast cancer cells; cited from earlier work
[5] = tested on: IL-6-induced STAT3 phosphorylation in patient-derived HGG cells; set-up: method as in PMID 31361777; settings: cited from earlier work
[6] = tested on: phospho-STAT3 in hepatocellular carcinoma cells; set-up: method as in PMID 30261753; settings: cited from earlier work
[7] = T47D, 5 µM, indicated time intervals
[8] = MCF-7, 5 µM, indicated time intervals

## Cc1ccc2nc(C)c(C3=NN(C(=O)CN4CCN(c5cccc(Cl)c5Cl)CC4)C(c4cccc([N+](=O)[O-])c4)C3)n2c1 (stereo not shown) [Compound 3f, 2-(4-(2,3-Dichlorophenyl)piperazin-1-yl)-1-(3-(2,6-dimethylimidazo[1,2-a]pyridin-3-yl)-5-(3-nitrophenyl)-4,5-dihydro-1H-pyrazol-1-yl)ethanone]
[1]; T47D, 0, 1, 3, 5 μM, 4 h
  phosphorylation level of STAT3 at Ser727, dose dependence: reduced the phosphorylation level
  phosphorylation level of STAT3 at Tyr705, dose dependence: reduced the phosphorylation level
  total STAT3 protein expression: without affecting the total STAT3 protein expression
[1]; [7]
  phosphorylation of STAT3 at Ser727, time dependence: reduced the phosphorylation
  phosphorylation of STAT3 at Tyr705, time dependence: reduced the phosphorylation
other
  melting point: 122 to 124 °C
TNBC cells
  effect against TNBC cells: significant effect
BT-474 cells; Homo sapiens, BT-474 cell viability, Alamar Blue
  IC50: 13.9 ± 1.32 µM
BT-474 cells; in words
  viability of BT-474 cells: inhibited in a dose-dependent manner
MCF-7 cells; Homo sapiens, MCF7, 72 h
  IC50: 9.2 µM
MCF-7 cells; 72 h
  IC50: 9.27 ± 0.97 µM
MCF-10A cells
  IC50: > 100 µM
[2]
  nuclear translocation of STAT3: inhibited the nuclear translocation
  nuclear translocation of pSTAT3: block the nuclear translocation
[3]
  nuclear translocation of STAT3: inhibited the nuclear translocation
  nuclear translocation of pSTAT3: block the nuclear translocation
[4]; MCF-7, 0, 1, 3, 5 μM, 4 h
  phosphorylation level of STAT3 at Ser727, dose dependence: reduced the phosphorylation level
  phosphorylation level of STAT3 at Tyr705, dose dependence: reduced the phosphorylation level
  total STAT3 protein expression: without affecting the total STAT3 protein expression
[4]; [8]
  phosphorylation of STAT3 at Ser727, time dependence: reduced the phosphorylation
  phosphorylation of STAT3 at Tyr705, time dependence: reduced the phosphorylation
T47D cells; Homo sapiens, T47D cell viability, Alamar Blue
  IC50: 23.5 ± 1.25 µM
T47D cells; in words
  viability of T47D cells: inhibited in a dose-dependent manner
SK-BR-3 cells
  IC50: > 100 µM

## COc1cc(Nc2cc(-c3ccnn3C)cc3cc(C(C)=O)oc23)cc(OC)c1 [Compound C6]
Breast cancer cells
  IC50: 160 nM

## CC(C)CCc1cc(-c2ccc(Br)cc2)n(-c2ccc(S(N)(=O)=O)cc2)n1 [MNS1-Leu]
[5]
  Akt, STAT1, JAK2, or ERK1/2 phosphorylation: without adversely affecting
  IL-6-induced STAT3 phosphorylation: inhibited

## COc1cc(-c2cc3ccccc3[nH]2)[nH]c1-c1nc2cc(Br)cnc2[nH]1 [compound 16]
[6]
  level of phospho-STAT3 and downstream signaling cascades: reduce the level

— article PMC9952374, “De Novo Design of Imidazopyridine-Tethered Pyrazolines That Target Phosphorylation of STAT3 in Human Breast Cancer Cells” (Bioengineering, 2023)
